In US5470833A, “Endothelin antagonistic peptide derivatives” (Banyu Pharmaceutical Co., Ltd., priority 1990, dated 1995):
Read-outs that look alike come from different tables or passages of the source. One block for each compound: values may come before it. Numbered stars: 1 amine (or outer) side, 2 acyl side, 3 side chain; on linkers, the order of the positions; unused ones are H or OH. Square brackets hold non-standard residues; d marks the D form. Peptide text beside a SMILES is read from it. * marks the point of attachment. ξ: configuration not given here. dNle = CCCC[C@@H](N)C(=O)O; ξ2Thi = NC(Cc1cccs1)C(=O)O; 3Abz = Nc1cccc(C(=O)O)c1; Cbz = O=C(OCc1ccccc1)*; Boc = CC(C)(C)OC(=O)*; CO = O=C([*:1])[*:2]; NHPh = c1ccc(N*)cc1; Ahx = NCCCCCC(=O)O; βAla = NCCC(=O)O

Assays:
[1] = tested on: isolated porcine coronary artery; test: Activities against endothelin-induced contraction of isolated porcine coronary arteries; parameters: species or system pig; conditions: for shift of the concentration-response curve of endothelin-1: added 20 minutes prior to endothelin-1
Method: The coronary artery of pig was extracted, and a spiral preparation having a width of 1 mm and a length of 10 mm was prepared therefrom.
Endothelin-1 was added into the organ bath in a cumulatively increasing manner, whereby the influence of a compound of the present invention to the concentration-response curve for endothelin-1 was examined. The compound was added into the organ bath 20 minutes prior to the addition of endothelin-1.

[2] = target: T1, endothelin receptor (membrane of smooth muscle tissue of porcine aorta) (Sus scrofa, UniProt Q29010); test: Endothelin binding inhibition test (125I-endothelin-1, porcine aorta smooth muscle membrane); conditions: read-out: 125I-endothelin-1 binding inhibition; for inhibition at 10 µM: 10 μM test compound (marked *)
T1 construct: from tissue; host or cells: porcine aorta smooth muscle, membrane fraction
T1 sequence (Q29010 21-427): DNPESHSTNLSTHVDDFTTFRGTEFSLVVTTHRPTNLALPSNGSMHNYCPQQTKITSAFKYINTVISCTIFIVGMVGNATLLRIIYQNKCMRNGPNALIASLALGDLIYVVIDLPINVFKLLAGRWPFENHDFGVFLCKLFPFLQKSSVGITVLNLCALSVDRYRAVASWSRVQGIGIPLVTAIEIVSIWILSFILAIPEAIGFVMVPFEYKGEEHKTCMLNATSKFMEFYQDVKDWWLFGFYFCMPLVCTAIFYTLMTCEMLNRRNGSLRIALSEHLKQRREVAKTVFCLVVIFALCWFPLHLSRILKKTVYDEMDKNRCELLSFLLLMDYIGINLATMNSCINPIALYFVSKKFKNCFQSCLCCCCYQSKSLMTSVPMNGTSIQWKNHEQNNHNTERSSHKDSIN
Method: The smooth muscle tissue of porcine aorta was homogenized in a buffer solution of 10 mM MOPS, pH 7.4, at 4° C. by a polytron. To the homogenate, sucrose was added to a concentration of 20%, and the mixture was centrifuged at 1,000×g for 15 minutes, and the supernatant was further centrifuged at 10,000×g for 15 minutes. The supernatant thereof was further centrifuged at 90,000×g for 40 minutes. The membrane precipitate thereby obtained was suspended in a buffer solution of 5 mM HEPES/Tris, pH 7.4, at a concentration of 25 mg/ml.
Then, 16 μl of this membrane suspension was added to 340 μl of 50 mM Tris/HCl buffer, pH 7.4, containing 10 μM calcium chloride, 10 μM magnesium chloride, 0.1 mM PMSF, 1 μM pepstatin A, 2 μM leupeptin, 1 mM 1,10-phenanthroline and 0.1% bovine serum albumin. To this suspension, 4 μl of (A) endothelin-1 (for nonspecific binding; 0.2 μM as the final concentration), (B) buffer solution A (for total control binding), or (C) a test compound (1.1 μM or 10 μM as the final concentration),was added. Further, to each suspension, 40 μl of ^125 I-endothelin-1 (12000-18000 cpm) was added. These mixtures were incubated at 25° C. for 4 hours, then subjected to filtration on a glass filter GF/C and then washed with 5 mM HEPES/Tris, pH 7.4, containing 0.3% bovine serum albumin. Then, the radioactivity trapped by the glass filter was measured, and the ^125 I-endothelin-1 binding inhibition D (%) at 1.1 μM or 10 μM of the test compound was determined by the following equation. [formula] Each test was performed in triplicate.
The test compounds are indicated by Compound Nos.

[3] = tested on: isolated rat heart; test: Effects on the increased perfusion pressure induced by endothelin in isolated rat heart (Langendorff)
Method: The heart of a male Sprague Dohrie (SD) rat was extracted, and the perfusion pressure was measured and recorded according to the Langendorff's method.
Endothelin-1 was cumulatively added to the perfusate, whereby the influence of a compound of the present invention to the concentration-response curve for endothelin-1 was examined. The compound which was dissolved in the perfusate had been infused from 20 minutes prior to the addition of endothelin-1 till just after finishing measurement of the concentration-response curve for endothelin-1.

[4] = tested on: isolated guinea pig trachea; test: Activities against endothelin-induced contraction of isolated guinea pig trachea; conditions: 6 μM compound; for shift of the concentration-response curve for endothelin-1: added 20 minutes prior to endothelin-1
Method: The trachea of a guinea pig was extracted, and the trachea was cut into rings to afford a preparation.
Endothelin-1 was added into the organ bath in a cumulatively increasing manner, and the influence of a compound of the present invention to the concentration-response curve for endothelin was examined. The compound was added into the organ bath 20 minutes prior to the addition of endothelin-1.

SMILES: CC(C)C[C@H](NC(=O)N1CCCCCC1)C(=O)N[C@H](Cc1c[nH]c2ccccc12)C(=O)N[C@H](Cc1c[nH]c2ccccc12)C(=O)O [Compound 50]
maximum response to endothelin-1 ([1]; 2 μM compound): did not affect the maximum response
shift of the concentration-response curve of endothelin-1 ([1]; 2 μM compound): remarkably shifted the concentration-response curves of endothelin-1 to the right
inhibition at 1.1 µM [2]: 87%
maximum response to endothelin-1 (perfusion pressure) ([3]; 1 μM compound): did not affect the maximum response
shift of the concentration-response curve for endothelin-1 (perfusion pressure) ([3]; 1 μM compound in perfusate from 20 minutes prior to endothelin-1): moved the concentration-response curve for endothelin-1to the right
maximum response to endothelin-1 [4]: did not affect the maximum response
shift of the concentration-response curve for endothelin-1 [4]: remarkably shifted the concentration-response curves for endothelin-1 to the right

SMILES: CC(C)C[C@H](NC(=O)N1CCCCCC1)C(=O)N[C@H](Cc1c[nH]c2ccccc12)C(=O)NCCC(=O)O [Compound 93]
maximum response to endothelin-1 ([1]; 6 μM compound): did not affect the maximum response
shift of the concentration-response curve of endothelin-1 ([1]; 6 μM compound): remarkably shifted the concentration-response curves of endothelin-1 to the right
inhibition at 1.1 µM ([2]; 1.1 μM test compound (no mark)): 78%
maximum response to endothelin-1 [4]: did not affect the maximum response
shift of the concentration-response curve for endothelin-1 [4]: remarkably shifted the concentration-response curves for endothelin-1 to the right

SMILES: CC(C)C[C@H](NC(=O)N1CCCCCC1)C(=O)N[C@H](Cc1cn(C=O)c2ccccc12)C(=O)N[C@H](C)CS(=O)(=O)O [Compound 162]
inhibition at 1.1 µM ([2]; 1.1 μM test compound (no mark)): 86%

SMILES: CCOC(=O)CCNC(=O)[C@@H](Cc1c[nH]c2ccccc12)NC(=O)[C@H](CC(C)C)NC(=O)N1CCCCCC1 [Compound 92]
inhibition at 1.1 µM ([2]; 1.1 μM test compound (no mark)): 40%

SMILES: CC(C)C[C@H](NC(=O)OC(C)(C)C)C(=O)N[C@H](Cc1c[nH]c2ccccc12)C(=O)NC(Cc1cccs1)C(=O)O (stereo partly drawn) [Compound 15] (Boc-Leu-[dW]-[ξ2Thi]-OH)
inhibition at 1.1 µM ([2]; 1.1 μM test compound (no mark)): 71%

SMILES: CC(C)C[C@H](NC(=O)N1CCCC1(C)C)C(=O)N[C@H](Cc1c[nH]c2ccccc12)C(=O)N[C@H](Cc1c[nH]c2ccccc12)C(=O)O [Compound 173]
inhibition at 1.1 µM ([2]; 1.1 μM test compound (no mark)): 84%

SMILES: CC(C)C[C@H](NC(=O)N1CCCCCC1)C(=O)N[C@H](Cc1c[nH]c2ccccc12)C(=O)NCCC(=O)NS(=O)(=O)c1ccccc1 [Compound 157]
inhibition at 1.1 µM [2]: 69%

SMILES: CC(C)C[C@H](NC(=O)N(CC(C)C)C1CCCC1)C(=O)N[C@H](Cc1c[nH]c2ccccc12)C(=O)N[C@H](Cc1c[nH]c2ccccc12)C(=O)O [Compound 172]
inhibition at 1.1 µM ([2]; 1.1 μM test compound (no mark)): 87%

SMILES: CC(C)C[C@H](NC(=O)OC(C)(C)C)C(=O)N[C@H](Cc1c[nH]c2ccccc12)C(=O)Nc1cccc(C(=O)O)c1 [Compound 12] (Boc-Leu-[dW]-[3Abz]-OH)
inhibition at 1.1 µM ([2]; 1.1 μM test compound (no mark)): 31%

SMILES: CC(C)C[C@H](NC(=O)N1CCCCCC1)C(=O)N[C@H](Cc1cn(C=O)c2ccccc12)C(=O)NCCS(=O)(=O)O [Compound 161]
inhibition at 1.1 µM ([2]; 1.1 μM test compound (no mark)): 84%

SMILES: CC(C)C[C@H](NC(=O)Nc1ccccc1)C(=O)N[C@H](Cc1c[nH]c2ccccc12)C(=O)NCCC(=O)O [Compound 84] ({NHPh-CO}-Leu-[dW]-[βAla]-OH)
inhibition at 1.1 µM ([2]; 1.1 μM test compound (no mark)): 70%

SMILES: CC(C)C[C@H](NC(=O)OC(C)(C)C)C(=O)N[C@H](Cc1c[nH]c2ccccc12)C(=O)NCC(=O)NCC(=O)O [Compound 23] (Boc-L[dW]GG-OH)
inhibition at 1.1 µM ([2]; 1.1 μM test compound (no mark)): 33%

Further lines, results first:

inhibition at 1.1 µM ([2]; 1.1 μM test compound (no mark)): 65%
SMILES: CC(C)C[C@H](NC(=O)OC(C)(C)C)C(=O)N[C@H](Cc1c[nH]c2ccccc12)C(=O)N[C@H](CC(=O)O)C(N)=O [Compound 36] (Boc-Leu-[dW]-[dD]-NH2)

inhibition at 10 µM [2]: 39%
SMILES: CC(C)C[C@H](NC(=O)OC(C)(C)C)C(=O)N[C@H](Cc1c[nH]c2ccccc12)C(=O)N[C@@H](CC(=O)O)C(=O)Nc1ccccc1 [Compound 45] (Boc-Leu-[dW]-Asp-NHPh)

inhibition at 1.1 µM ([2]; 1.1 μM test compound (no mark)): 56%
SMILES: CC(C)C[C@H](NC(=O)OC(C)(C)C)C(=O)N[C@H](Cc1c[nH]c2ccccc12)C(=O)N[C@H](CCCCNC(=O)OCc1ccccc1)C(=O)O [Compound 8] (Boc-Leu-[dW]-[dK](Cbz)-OH)

inhibition at 1.1 µM ([2]; 1.1 μM test compound (no mark)): 41%
SMILES: CCCC[C@@H](NC(=O)[C@@H](Cc1c[nH]c2ccccc12)NC(=O)[C@H](CC(C)C)NC(=O)OC(C)(C)C)C(=O)O [Compound 11] (Boc-Leu-[dW]-[dNle]-OH)

inhibition at 10 µM [2]: 36%
SMILES: CC(C)C[C@H](NC(=O)OC(C)(C)C)C(=O)N[C@H](Cc1c[nH]c2ccccc12)C(=O)N[C@H](Cc1ccccc1)CS(=O)(=O)O [Compound 26]

inhibition at 1.1 µM ([2]; 1.1 μM test compound (no mark)): 30%
SMILES: CC(C)C[C@H](NC(=O)OC(C)(C)C)C(=O)N[C@H](Cc1c[nH]c2ccccc12)C(=O)N[C@H](CC(=O)O)C(=O)Nc1ccccc1 [Compound 44] (Boc-Leu-[dW]-[dD]-NHPh)

inhibition at 10 µM [2]: 37%
SMILES: CC(C)C[C@H](NC(=O)OC(C)(C)C)C(=O)N[C@H](Cc1c[nH]c2ccccc12)C(=O)NCCCCCC(=O)O [Compound 6] (Boc-Leu-[dW]-[Ahx]-OH)
